Measurements: publication PMC3465557, “Mixed antagonistic effects of the ginkgolides at recombinant human ρ1 GABAC receptors” (Neuropharmacology, 2012)

Experiments:
Assay type in all cases: cell-based
[1] = target: T1, recombinant human ρ1 GABAC receptors (Homo sapiens, UniProt P24046); experiment: Fit of kinetic schemes 1-4 to equilibrium GABA concentration–response curves
T1 construct: expressed in transfected cells; host or cells: Xenopus laevis oocytes (cRNA injection)
Text: The concentration–response curves were fitted with the different mechanisms of inhibition using a least squares non-linear regression in GraphPad Prism.
The mechanism used (Fig. 7, Scheme 1) is that of [Amin and Weiss (1996)], where there are five equivalent agonist binding sites and three sites need to be occupied to activate the receptor, leading to a single open state. […] This assumes five equivalent agonist binding sites but only three are required to be occupied to activate (open) the channel pore. All subsequent kinetic schemes are derivatives of the linear scheme, by incorporating different possible mechanisms for antagonism by ginkgolides. These are drawn from the cyclic mixed-antagonism mechanism described by [Smart and Constanti (1986)]. Scheme 2 and scheme 3 both assume that ginkgolide binds to a single site in the receptor complex. […] For scheme 4, the equilibrium between the fully-liganded closed and open states is removed, which allows for the possibility that the ginkgolide binds to a separate site in the closed state compared to the open state.
Initially, a cyclic allosteric mechanism (Fig. 7, scheme 2) similar to that of [Smart and Constanti (1986)] was fit to the data. This scheme assumes a single binding site on the receptor complex that has an allosteric effect on all rate constants in the reaction mechanism. The scheme was fitted to the data allowing the agonist equilibrium constant, Ka, to be related to the equilibrium constant in the presence of ginkgolide, Ka′ by a constant ratio, R = Ka/Ka′. Similarly, the opening equilibrium constants E and E′ were related by the ratio, S = E/E′. […] As a test of the mechanism, the parameters obtained from the fit were used to predict the inhibition curves (Fig. 8D–F).
This effectively means that ginkgolide is binding at two separate sites. […] Scheme 4 is therefore functionally similar to scheme 2 with E′ having a value close to zero.

[2] = target: T1, recombinant human ρ1 GABAC receptors; experiment: Inhibition curves: ginkgolides co-applied with a fixed GABA concentration, two-electrode voltage clamp in Xenopus oocytes
Experimental: (§1) Human ρ1 GABAC receptor subunit cDNA was linearized using the restriction enzyme Xba 1 and transcribed using the “mMESSAGE mMACHINE” kit (Ambion Inc., Austin, TX, USA). RNA (10 ng/50 nl) was injected into the cytoplasm of defollicated oocytes using a 15–20 μm diameter tip glass micropipette Nanoject injector (Drummond Scientific Co., Broomali, PA, USA). The oocytes were incubated for 2–7 days at 18 °C in ND96 buffer with a twice-daily change of buffer.
(§2) Whole-cell currents from homomeric ρ1 GABAC receptors expressed in oocytes were recorded using two-electrode voltage clamp. Recording microelectrodes were fabricated with a micropipette puller (Narishige Scientific Instrument Lab, Tokyo, Japan) and filled with 3 M KCl solution. Oocytes were clamped at −60 mV and continuously superfused with ND96 buffer. […] […]. Co-applications of ginkgolides were interleaved with test applications of GABA alone to monitor the response throughout the experiment. […] A washout period of 3–5 min was allowed between each application.
(§3) Analysis and curve fitting was performed using GraphPad Prism v3.02 (GraphPad Software, San Diego, California, USA). […] […]. […] Unless otherwise noted, parameters were calculated from individual oocytes and then averaged.

[3] = target: T1, recombinant human ρ1 GABAC receptors; experiment: Inhibition and recovery time when ginkgolide is co-applied during the plateau of the GABA-activated current
Experimental: as §2
The recovery time from inhibition (measured as the 10–90% rise interval) was determined from the current responses obtained when ginkgolides A, B and C were co-applied during the plateau of the GABA-activated current (Fig. 6). […].
Fig. 6 Recovery time from ginkgolide inhibition.

[4] = target: T1, recombinant human ρ1 GABAC receptors; experiment: GABA concentration–response curves in the presence and absence of ginkgolides, two-electrode voltage clamp in Xenopus oocytes; conditions: for type of antagonism: from GABA concentration–response and inhibition curves
Experimental: as §1, §2, §3

[5] = target: T1, recombinant human ρ1 GABAC receptors; experiment: Use-dependence: repeated co-applications with GABA during extended incubation of ginkgolide; conditions: for use-dependence: repeated co-applications
Experimental: as §2
Fig. 5 Use-dependent effect in the antagonism of ρ1 GABAC receptors by ginkgolides. A. Examples of currents recorded during repeated co-applications of GABA and ginkgolides. […] Each application was separated by a 3-min interval. […]. […] Overall, there was no obvious evidence for use-dependent inhibition by the ginkgolides.

[6] = Hill coefficient of GABA curve with 10 μM antagonist
[7] = Hill coefficient of GABA curve with 30 μM antagonist
[8] = Hill coefficient of GABA curve with 100 μM antagonist
[9] = in the presence of 10 μM ginkgolide
[10] = in the presence of 30 μM ginkgolide
[11] = in the presence of 100 μM ginkgolide

T1 sequence (P24046 22-479): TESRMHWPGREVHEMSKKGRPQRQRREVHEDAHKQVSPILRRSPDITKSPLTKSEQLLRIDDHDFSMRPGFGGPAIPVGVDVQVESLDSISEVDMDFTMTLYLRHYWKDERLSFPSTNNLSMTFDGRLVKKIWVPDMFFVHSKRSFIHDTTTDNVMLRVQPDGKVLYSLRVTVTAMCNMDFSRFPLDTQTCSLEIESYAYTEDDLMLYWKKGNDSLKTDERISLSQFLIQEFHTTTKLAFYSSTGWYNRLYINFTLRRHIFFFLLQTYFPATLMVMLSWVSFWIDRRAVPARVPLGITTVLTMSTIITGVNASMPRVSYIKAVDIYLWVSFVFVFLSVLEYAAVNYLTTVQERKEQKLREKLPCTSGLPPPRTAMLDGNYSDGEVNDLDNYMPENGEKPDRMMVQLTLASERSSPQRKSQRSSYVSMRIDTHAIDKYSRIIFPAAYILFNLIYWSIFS

Compound: C[C@@H]1C(=O)O[C@H]2C[C@@]34[C@H]5C[C@@H](C(C)(C)C)[C@]36[C@@H](OC(=O)[C@@H]6O)O[C@@]4(C(=O)O5)[C@]21O [Ginkgolide A, ginkgolide A]
- Kd ([1]; Kb0, Scheme 2, calculated): 1.3 µM
- Kd ([1]; Kb0, Scheme 3, calculated): 1.5 µM
- Kd ([1]; Kb0, Scheme 4, calculated): 1.3 µM
- Kd ([1]; Kb3, Scheme 2, calculated): 7.7 µM
- Kd ([1]; Kb3, Scheme 3, calculated): 6790 µM
- Kd ([1]; Kb3, Scheme 4, printed with ±SE): 7.7 ± 1.4 µM
- Kd ([1]; Kb4 (equilibrium constant of ginkgolide, open state), Scheme 2, fitted, Ka fixed 3.2 μM, E fixed 11): 19.7 ± 3.9 µM
- Kd ([1]; Kb4 (equilibrium constant of ginkgolide, open state), Scheme 3, fitted, Ka fixed 3.2 μM, E fixed 11): 611 ± 89 µM
- Kd ([1]; Kb4 (equilibrium constant of ginkgolide, open state), Scheme 4, fitted, Ka fixed 3.2 μM, E fixed 11): 19.7 ± 3.9 µM
- E′ (opening equilibrium constant with ginkgolide bound) ([1]; Scheme 2, calculated): 4.3
- Ka′ (agonist equilibrium constant with ginkgolide bound) ([1]; Scheme 2, calculated): 5.7 µM
- R (= Ka/Ka′) ([1]; Scheme 2, fitted): 0.56 ± 0.03
- S (= E/E′) ([1]; Scheme 2, fitted): 2.6 ± 0.2
- E′ (opening equilibrium constant with ginkgolide bound) ([1]; Scheme 3, calculated): 122
- Ka′ (agonist equilibrium constant with ginkgolide bound) ([1]; Scheme 3, calculated): 53.3 µM
- R (= Ka/Ka′) ([1]; Scheme 3, fitted): 0.06 ± 0.05
- S (= E/E′) ([1]; Scheme 3, fitted): 0.09 ± 0.22
- Ka′ (agonist equilibrium constant with ginkgolide bound) ([1]; Scheme 4, calculated): 5.7 µM
- R (= Ka/Ka′) ([1]; Scheme 4, fitted): 0.55 ± 0.03
- nH of inhibition curve ([2]; 0.5 μM GABA): −0.99 ± 0.08
- nH of inhibition curve ([2]; 1.2 μM GABA): −0.82 ± 0.07
- nH of inhibition curve ([2]; 3.0 μM GABA): −0.61 ± 0.03
- nH of inhibition curve ([2]; 10 μM GABA): −0.73 ± 0.04
- IC50 ([2]; IC50, 0.5 μM GABA): 5.74 ± 0.17 µM
- IC50 ([2]; IC50, 1.2 μM GABA): 42.3 ± 5.76 µM
- IC50 ([2]; IC50, 3.0 μM GABA): 182 ± 12.6 µM
- IC50 ([2]; IC50, 10 μM GABA): 874 ± 108 µM
- Recovery time (10–90% rise interval) ([3]; 1 μM GABA, 5 μM ginkgolide): 48.4 ± 5.7 s
- inhibition at 5 µM ([3]; 1 μM GABA, 5 μM ginkgolide): 33.8 ± 3.4%
- Recovery time (10–90% rise interval) ([3]; 3 μM GABA, 5 μM ginkgolide): 14.3 ± 4.6 s
- inhibition at 5 µM ([3]; 3 μM GABA, 5 μM ginkgolide): 15.9 ± 1.6%
- Recovery time (10–90% rise interval) ([3]; 3 μM GABA, 50 μM ginkgolide): 18.4 ± 3.4 s
- inhibition at 50 µM ([3]; 3 μM GABA, 50 μM ginkgolide): 21.4 ± 1.9%
- GABA + Ant nH [4, 6]: 1.98 ± 0.12
- GABA + Ant nH [4, 7]: 2.25 ± 0.04
- GABA + Ant nH [4, 8]: 2.60 ± 0.22
- type of antagonism [4]: mixed antagonists
- fold increase in the GABA EC50 [4, 9]: 1.9 fold
- fold increase in the GABA EC50 [4, 10]: 2.3 fold
- fold increase in the GABA EC50 [4, 11]: 2.5 fold
- Max. GABA response ([4]; with 10 μM antagonist): 94.78 ± 0.54 %
- Max. GABA response ([4]; with 30 μM antagonist): 91.44 ± 0.80 %
- Max. GABA response ([4]; with 100 μM antagonist): 85.66 ± 1.34 %
- use-dependence ([5]; 5 μM ginkgolide, 1 μM GABA): not obviously use-dependent
- inhibition at 5 µM ([5]; read-out: level of inhibition): 33.2 ± 1.4%

Compound: ginkgolide B
- E′ (opening equilibrium constant with ginkgolide bound) ([1]; Scheme 2, calculated): 1.3
- Ka′ (agonist equilibrium constant with ginkgolide bound) ([1]; Scheme 2, calculated): 8.3 µM
- R (= Ka/Ka′) ([1]; Scheme 2, fitted): 0.39 ± 0.02
- S (= E/E′) ([1]; Scheme 2, fitted): 8.6 ± 0.6
- E′ (opening equilibrium constant with ginkgolide bound) ([1]; Scheme 3, calculated): 1 × 10^−9
- Ka′ (agonist equilibrium constant with ginkgolide bound) ([1]; Scheme 3, calculated): 12.9 µM
- R (= Ka/Ka′) ([1]; Scheme 3, fitted): 0.25 ± 0.01
- S (= E/E′) ([1]; Scheme 3, fitted): 1.0 × 10^10 ± 1.4 × 10^16
- Ka′ (agonist equilibrium constant with ginkgolide bound) ([1]; Scheme 4, calculated): 8.3 µM
- R (= Ka/Ka′) ([1]; Scheme 4, fitted): 0.39 ± 0.02
- fold more potent than ginkgolide A ([2]; 0.5 μM GABA): approximately 7.7 fold
- fold more potent than ginkgolide C ([2]; 0.5 μM GABA): ~1.1 fold
- nH of inhibition curve ([2]; 0.5 μM GABA): −0.87 ± 0.05
- fold more potent than ginkgolide A ([2]; 1.2 μM GABA): ~18 fold
- fold more potent than ginkgolide C ([2]; 1.2 μM GABA): ~2.3 fold
- nH of inhibition curve ([2]; 1.2 μM GABA): −0.97 ± 0.07
- fold more potent than ginkgolide A ([2]; 3 μM GABA): ~32 fold
- fold more potent than ginkgolide C ([2]; 3 μM GABA): ~3.8 fold
- nH of inhibition curve ([2]; 3.0 μM GABA): −0.78 ± 0.06
- fold more potent than ginkgolide A ([2]; 10 μM GABA): ~6.7 fold
- fold more potent than ginkgolide C ([2]; 10 μM GABA): ~4 fold
- nH of inhibition curve ([2]; 10 μM GABA): −0.83 ± 0.06
- bottom plateau of the inhibition curve ([2]; 10 μM GABA, five out of seven oocytes, up to 3 mM): approximately 30 % of Imax
- Inhibition (%) ([3]; 1 μM GABA, 5 μM ginkgolide): 55.5 ± 3.4%
- Recovery time (10–90% rise interval) ([3]; 1 μM GABA, 5 μM ginkgolide): 42.8 ± 8.6 s
- Inhibition (%) ([3]; 3 μM GABA, 5 μM ginkgolide): 35.2 ± 6.8%
- Recovery time (10–90% rise interval) ([3]; 3 μM GABA, 5 μM ginkgolide): 21.3 ± 4.4 s
- Inhibition (%) ([3]; 3 μM GABA, 50 μM ginkgolide): 54.6 ± 7.5%
- Recovery time (10–90% rise interval) ([3]; 3 μM GABA, 50 μM ginkgolide): 29.4 ± 3.8 s
- GABA + Ant nH [4, 6]: 1.97 ± 0.10
- GABA + Ant nH [4, 7]: 1.83 ± 0.06
- GABA + Ant nH [4, 8]: 1.61 ± 0.05
- type of antagonism [4]: mixed antagonists
- fold increase in the GABA EC50 [4, 9]: 3.2 fold
- fold increase in the GABA EC50 [4, 10]: 4.7 fold
- fold increase in the GABA EC50 [4, 11]: 7.5 fold
- Max. GABA response ([4]; with 10 μM antagonist): 80.65 ± 2.18 %
- Max. GABA response ([4]; with 30 μM antagonist): 75.12 ± 1.39 %
- Max. GABA response ([4]; with 100 μM antagonist): 69.56 ± 2.48 %
- level of inhibition ([5]; 5 μM ginkgolide, 1 μM GABA, five co-applications after 40 s preincubation): 61.3 ± 1.7%
- use-dependence ([5]; 5 μM ginkgolide, 1 μM GABA): not obviously use-dependent
